# Reference: patent publication US20250034170A1, “SMALL MOLECULE MODULATORS OF GLUCOCEREBROSIDASE ACTIVITY AND USES THEREOF” (Vanqua Bio, Inc., priority 2021, published 2025)
# Target: T1, GCase (Homo sapiens, UniProt P04062)
# T1 construct: endogenous in cells; host or cells: HeLa cells
# T1 sequence (P04062 40-536): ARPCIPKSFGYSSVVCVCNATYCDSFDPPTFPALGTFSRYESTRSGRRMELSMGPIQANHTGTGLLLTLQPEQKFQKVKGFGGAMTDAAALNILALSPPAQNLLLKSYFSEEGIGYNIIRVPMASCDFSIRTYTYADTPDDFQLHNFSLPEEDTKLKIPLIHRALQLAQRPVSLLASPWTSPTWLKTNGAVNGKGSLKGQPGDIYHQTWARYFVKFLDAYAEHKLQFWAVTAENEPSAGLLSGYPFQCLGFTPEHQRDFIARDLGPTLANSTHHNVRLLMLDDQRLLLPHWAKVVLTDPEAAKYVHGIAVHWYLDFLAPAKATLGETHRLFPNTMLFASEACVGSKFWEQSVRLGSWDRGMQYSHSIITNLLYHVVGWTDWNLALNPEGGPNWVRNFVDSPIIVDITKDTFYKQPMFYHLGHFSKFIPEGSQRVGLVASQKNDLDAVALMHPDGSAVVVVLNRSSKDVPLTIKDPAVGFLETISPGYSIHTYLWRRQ
# Test: activation of GCase in a live cell PFB assay in HELA cells
# Assay type: cell-based
# Details: EC50 given as range classes
# Procedure: Exemplary compounds were evaluated for activation of GCase in a live cell PFB assay in HELA cells (essentially as described in Ysselstein et al., “LRRK2 kinase activity regulates lysosomal glucocerebrosidase in neurons derived from Parkinson's disease patients” Nature Communications (2019) 10:5570). […] EC50 ranges: A: <10 μM; B: >10-50 μM; C: >50-100 μM; D: >100 μM.
row,EC50 [µM],SMILES
1,10 to 50,FC(F)Cn1ncc2ncc(N3CCCC4(CCN(c5cncc(C(F)(F)F)c5)CC4)C3)nc21 [Cmpd 221]
2,10 to 50,FC(F)Cn1ncc2ncc(N3CC4(CCN(c5ccnc(C(F)(F)F)c5)C4)C3)nc21 [Cmpd 222]
3,< 10,FC(F)Cn1ncc2ncc(N3CCC4(CN(c5ccnc(C(F)(F)F)c5)C4)C3)nc21 [Cmpd 223]
4,10 to 50,FC(F)Cn1ncc2ncc(N3CCC4(CCCN(c5cc(C(F)(F)F)ccn5)C4)CC3)nc21 [Cmpd 224]
5,< 10,FC(F)Cn1ncc2ncc(N3CCC4(CCCN(c5ccnc(C(F)(F)F)c5)C4)CC3)nc21 [Cmpd 225]
6,> 100,FC(F)Cn1ncc2ncc(N3CCCC4(CCN(c5ccnc(C(F)(F)F)c5)CC4)C3)nc21 [Cmpd 226]
7,10 to 50,FC(F)Cn1ncc2ncc(N3CCC4(CC3)CC(Nc3ccc(C(F)(F)F)cn3)C4)nc21 [Cmpd 227]
8,> 100,FC(F)Cn1ncc2ncc(N3CCC4(CC3)CC(Nc3cncc(C(F)(F)F)c3)C4)nc21 [Cmpd 228]
9,10 to 50,FC(F)Cn1ncc2ncc(N3CCC4(CC3)CC(Nc3ccnc(C(F)(F)F)c3)C4)nc21 [Cmpd 229]
10,10 to 50,FC(F)Cn1ncc2ncc(N3CCC4(CC3)CC(Nc3ccc(C(F)(F)F)nc3)C4)nc21 [Cmpd 230]
11,10 to 50,FC(F)Cn1ncc2ncc(N3CCC4(CC3)CC(Nc3cc(C(F)(F)F)ccn3)C4)nc21 [Cmpd 231]
12,10 to 50,FC(F)Cn1ncc2ncc(N3CCC4(CC3)CC(Nc3cccc(C(F)(F)F)n3)C4)nc21 [Cmpd 232]
13,< 10,FC(F)(F)c1ccc(N2CCC3(CCN(c4cncc(-c5nncs5)n4)CC3)C2)cn1 [Cmpd 233]

# Same assay, conditions: activation of GCase, EC50 ranges
row,SMILES,EC50 [µM]
1,FC(F)(F)c1ccc(N2CCC3(CCN(c4cncc(-c5nncs5)n4)CC3)C2)nc1 [Cmpd 234],10 to 50
2,FC(F)(F)c1cncc(N2CCC3(CCN(c4cncc(-c5nncs5)n4)CC3)C2)c1 [Cmpd 235],50 to 100
3,O=C1CC2(CCN(c3cncc(-c4nncs4)n3)CC2)CN1c1cncc(C(F)(F)F)c1 [Cmpd 237],10 to 50
4,FC(F)(F)c1ccc(N2CCC3(CCN(c4cncc(-n5ccnc5)n4)CC3)C2)cn1 [Cmpd 238],10 to 50
5,FC(F)(F)c1ccc(N2CCC3(CCN(c4nccn5cncc45)CC3)C2)cn1 [Cmpd 240],50 to 100
6,O=C1N(c2cc(C(F)(F)F)ccn2)CCC12CCN(c1cncc(-n3cccn3)n1)CC2 [Cmpd 241],10 to 50
7,O=C1N(c2cc(C(F)(F)F)ccn2)CCC12CCN(c1cncc(-n3ccnc3)n1)CC2 [Cmpd 242],10 to 50
8,O=C1N(c2cc(C(F)(F)F)ccn2)CCC12CCN(c1cncc(OCC(F)(F)F)n1)CC2 [Cmpd 244],10 to 50
9,O=C1N(c2cc(C(F)(F)F)ccn2)CCC12CCN(c1cncc(N3CCCC3)n1)CC2 [Cmpd 245],10 to 50
10,O=C1N(c2cc(C(F)(F)F)ccn2)CCC12CCN(c1cncc(N3CCOCC3)n1)CC2 [Cmpd 246],10 to 50
11,FC(F)(F)c1ccc(N2CCC3(CCN(c4cncc(N5CCOCC5)n4)CC3)C2)cn1 [Cmpd 249],10 to 50
12,Cc1nccn1-c1cncc(N2CCC3(CCN(c4ccc(C(F)(F)F)nc4)C3)CC2)n1 [Cmpd 250],10 to 50
13,FC(F)(F)c1ccc(N2CCC3(CCN(c4cncc(-c5ncccn5)n4)CC3)C2)cn1 [Cmpd 252],10 to 50
14,CC(C)Oc1cncc(N2CCC3(CCN(c4ccc(C(F)(F)F)nc4)C3)CC2)n1 [Cmpd 254],10 to 50
15,FC(F)Cn1ncc2ncc(N3CCC4(CC3)CN(c3cc(C(F)(F)F)ccn3)c3ccccc34)nc21 [Cmpd 259],10 to 50
16,O=C1N(c2ccc(C(F)(F)F)nc2)c2ccccc2C12CCN(c1cnc3cnn(CC(F)F)c3n1)CC2 [Cmpd 261],10 to 50
17,O=C1N(c2cc(C(F)(F)F)ccn2)CCC12CCN(c1nccn3cncc13)CC2 [Cmpd 264],> 100

row,SMILES,EC50 [µM]
1,CC1CC2(CCN(c3cnc4cnn(CC(F)F)c4n3)CC2)CN1c1ccc(C(F)(F)F)nc1 (centres unmarked) [Cmpd 265],10 to 50
2,Cc1cccc(-c2noc(C)c2C(=O)N2CCC3(CC2)CCN(c2cc(C(F)(F)F)ccn2)C3=O)c1 [Cmpd 267],10 to 50
3,Cc1cc(F)cc(-n2cc(C(=O)N3CCC4(CC3)CCN(c3cc(C(F)(F)F)ccn3)C4=O)nn2)c1 [Cmpd 268],10 to 50
4,O=C(c1nc2ccccc2cc1C1CC1)N1CCC2(CC1)CCN(c1cc(C(F)(F)F)ccn1)C2=O [Cmpd 269],10 to 50
5,Cc1cn(-c2ccccc2)nc1C(=O)N1CCC2(CC1)CCN(c1cc(C(F)(F)F)ccn1)C2=O [Cmpd 270],10 to 50
6,Cc1nn(CC(F)F)c2nc(N3CCC4(CC3)CCN(c3cncc(C(F)(F)F)n3)C4=O)cnc12 [Cmpd 271],10 to 50
7,O=C1N(c2cncc(C(F)(F)F)n2)CCC12CCN(c1cnc3cnn(CC(F)(F)F)c3n1)CC2 [Cmpd 272],10 to 50
8,O=C1N(c2cc(C(F)(F)F)ccn2)CCC12CCN(c1cnc3cnn(C4COC4)c3n1)CC2 [Cmpd 273],10 to 50
9,O=C1N(c2cncc(C(F)(F)F)n2)CCC12CCN(c1cnc3cnn(C4COC4)c3n1)CC2 [Cmpd 276],10 to 50
10,O=C1CC2(CCN(c3cnc4cnn(C5COC5)c4n3)CC2)CN1c1cncc(C(F)(F)F)n1 [Cmpd 277],10 to 50
11,Cc1nn(CC(F)F)c2nc(N3CCC4(CC3)CC(=O)N(c3cncc(C(F)(F)F)n3)C4)cnc12 [Cmpd 280],10 to 50
12,O=C1CC2(CCN(c3cnc4cnn(C5COC5)c4n3)CC2)CN1c1cc(C(F)(F)F)ccn1 [Cmpd 284],50 to 100
13,O=C1N(c2cc(C(F)(F)F)ccn2)CCC12CCN(c1ncc3cnn(CC(F)F)c3n1)CC2 [Cmpd 285],10 to 50
14,O=C1N(c2cncc(C(F)(F)F)n2)CCC12CCN(c1ncc3cnn(CC(F)F)c3n1)CC2 [Cmpd 287],> 100
15,O=C1CC2(CCN(c3ncc4cnn(CC(F)F)c4n3)CC2)CN1c1cncc(C(F)(F)F)n1 [Cmpd 288],10 to 50
16,O=C1N(c2nccc(C(F)(F)F)n2)CCC12CCN(c1ncc3cnn(CC(F)F)c3n1)CC2 [Cmpd 289],10 to 50
17,O=C1N(c2ccc(C(F)(F)F)nc2)C(c2ccccc2)CC12CCN(c1cnc3cnn(CC(F)F)c3n1)CC2 (centres unmarked) [Cmpd 291],< 10

# Continued, values first:
row,EC50 [µM],SMILES
1,< 10,O=C1CC2(CCN(c3cncc(-c4nncs4)n3)CC2)CN1c1ccc(C(F)(F)F)nc1 [Cmpd 236]
2,< 10,FC(F)(F)c1ccc(N2CCC3(CCN(c4cncc(-n5cccn5)n4)CC3)C2)cn1 [Cmpd 239]
3,< 10,FC(F)(F)COc1cncc(N2CCC3(CCN(c4ccc(C(F)(F)F)nc4)C3)CC2)n1 [Cmpd 243]
4,< 10,O=C1N(c2ccc(C(F)(F)F)nc2)CC(c2ccccc2)C12CCN(c1cnc3cnn(CC(F)F)c3n1)CC2 (centres unmarked) [Cmpd 247]
5,< 10,FC(F)(F)c1ccc(N2CCC3(CCN(c4cncc(N5CCCC5)n4)CC3)C2)cn1 [Cmpd 248]
6,< 10,FC(F)(F)c1ccc(N2CCC3(CCN(c4cncc(-c5ccccc5)n4)CC3)C2)cn1 [Cmpd 251]
7,< 10,FC(F)(F)c1ccc(N2CCC3(CCN(c4cncc(-n5cncn5)n4)CC3)C2)cn1 [Cmpd 253]
8,< 10,FC(F)(F)c1ccc(N2CCC3(CCN(c4cncc(C(F)(F)F)n4)CC3)C2)cn1 [Cmpd 255]
9,< 10,FC(F)(F)c1ccc(N2CCC3(CCN(c4cncc(N5CCCCC5)n4)CC3)C2)cn1 [Cmpd 256]
10,< 10,Cc1nn(CC(F)F)c2nc(N3CCC4(CCN(c5ccc(C(F)(F)F)nc5)C4)CC3)cnc12 [Cmpd 257]
11,< 10,Cc1nn(CC(F)F)c2nc(N3CCC4(CC3)CC(=O)N(c3ccc(C(F)(F)F)nc3)C4)cnc12 [Cmpd 258]
12,< 10,Cc1nn(CC(F)F)c2nc(N3CCC4(CC3)CCN(c3ccc(C(F)(F)F)nc3)C4=O)cnc12 [Cmpd 260]
13,< 10,CCc1nccn1-c1cncc(N2CCC3(CC2)CCN(c2cc(C(F)(F)F)ccn2)C3=O)n1 [Cmpd 262]
14,< 10,CCc1nccn1-c1cncc(N2CCC3(CCN(c4ccc(C(F)(F)F)nc4)C3)CC2)n1 [Cmpd 263]
15,< 10,FC(F)Cn1ncc2ncc(N3CCC4(CCN(c5ccc(C(F)(F)F)nc5)C4)C(F)(F)C3)nc21 (centres unmarked) [Cmpd 266]
16,< 10,O=C1CC2(CCN(c3cnc4cnn(CC(F)F)c4n3)CC2)CN1c1cncc(C(F)(F)F)n1 [Cmpd 274]
17,< 10,O=C1CC2(CCN(c3cnc4cnn(CC(F)F)c4n3)CC2)CN1c1nccc(C(F)(F)F)n1 [Cmpd 275]
18,< 10,O=C1N(c2nccc(C(F)(F)F)n2)CCC12CCN(c1cnc3cnn(C4COC4)c3n1)CC2 [Cmpd 278]
19,< 10,O=C1CC2(CCN(c3cnc4cnn(C5COC5)c4n3)CC2)CN1c1nccc(C(F)(F)F)n1 [Cmpd 279]
20,< 10,Cc1nn(CC(F)F)c2nc(N3CCC4(CC3)CCN(c3nccc(C(F)(F)F)n3)C4=O)cnc12 [Cmpd 281]
21,< 10,Cc1nn(CC(F)F)c2nc(N3CCC4(CC3)CC(=O)N(c3nccc(C(F)(F)F)n3)C4)cnc12 [Cmpd 282]
22,< 10,Cc1nn(CC(F)F)c2nc(N3CCC4(CC3)CC(=O)N(c3cc(C(F)(F)F)ccn3)C4)cnc12 [Cmpd 283]
23,< 10,O=C1CC2(CCN(c3ncc4cnn(CC(F)F)c4n3)CC2)CN1c1cc(C(F)(F)F)ccn1 [Cmpd 286]
24,< 10,O=C1CC2(CCN(c3ncc4cnn(CC(F)F)c4n3)CC2)CN1c1nccc(C(F)(F)F)n1 [Cmpd 290]
